Reference: patent US20200188361A1, “USE OF MITOCHONDRIAL ACTIVITY INHIBITORS FOR THE TREATMENT OF POOR PROGNOSIS ACUTE MYELOID LEUKEMIA” (UNIVERSITE DE MONTREAL, priority 2016, published 2020)
pEC50: −log10 of the molar value. Structures can show the parent of a compound that is named as a salt. Where two headings read alike, the source gives them in different places.

Key:
[1] = test system: HOX-med/low AML patient cells; assay: Primary chemical screen of 60 compounds, cell dose-response viability assay (CellTiterGlo, 6 days); assay type: cell-based, human; settings: read-out: MEAN EC50 HOX-med/low
Procedure: (§1) frozen AML mono-nucleated cells were thawed at 37° C. in Iscove's modified Dulbecco's medium (IMDM) containing 20% FBS and DNase I (100 μg/mL).
(§2) All powders were dissolved in DMSO and diluted in culture medium immediately before use. Final DMSO concentration in all conditions was 0.1%. The 60 compounds were purchased from various suppliers including Santa Cruz, Selleckchem, Calbiochem, AdooQ Bioscience, Cayman chemical and Synkinase.
(§3) Patient cells were seeded in 384-well plates at a density of 5,000 cells in 50 μL per well. In the initial screen, compounds were added to seeded cells in serial dilutions (10 dilutions, 1:3, starting from 10 μM or 20 μM), in duplicates. Cells treated with 0.1% DMSO without additional compound were used as negative controls. Viable cell counts per well were evaluated after 6 days of culture using the CellTiterGlo® assay (Promega®) according to the manufacturer's instruction.
(§4) Using high expression of HOXA9 and HOXA10 as a surrogate for the detection of HOX-network-high patient samples, the survival of HOX-high versus HOX-med/low specimens contacted with 60 inhibitors targeting receptor tyrosine kinases (RTK), members of the RAS and PI3K pathways, was assessed (FIG. 2A, Table 4).

[2] = test system: HOX-high AML patient cells; assay: as above; assay type: cell-based, human; settings: for pEC50: read-out: MEAN EC50 HOX-high
Procedure: as §1, §2, §3, §4

[3] = primary screen, mean over HOX-med/low patient specimens, 6 days culture, top concentration 10 μM or 20 μM
[4] = primary screen, mean over HOX-high patient specimens, 6 days culture, top concentration 10 μM or 20 μM
[5] = ratio of mean EC50 HOX-high to mean EC50 HOX-med/low
[6] = Homo sapiens, 144 h, primary screen, mean over HOX-med/low patient specimens, 6 days culture, top concentration 10 μM or 20 μM
[7] = Homo sapiens, 144 h, primary screen, mean over HOX-high patient specimens, 6 days culture, top concentration 10 μM or 20 μM

Row | SMILES | pEC50 [1, 3] | pEC50 [2, 4] | FOLD CHANGE High/Med-low [2, 5] | pEC50 [1, 6] | pEC50 [2, 7] | FOLD CHANGE High/Med-low [2] | pEC50 ([1]; Homo sapiens, 144 h) | pEC50 ([2]; Homo sapiens, 144 h)
1 | Nc1[nH]nc2nnc(-c3c(-c4ccccc4)nn4ccccc34)cc12 [ERK Inhibitor II FR180204] | < 5.00 | < 5.00 | 1.0 |  |  |  |  | 
2 | O=c1cc(N2CCNCC2)oc2c(-c3ccccc3)cccc12 [LY303511] |  |  |  | < 5.00 | < 5.00 |  |  | 
3 | COc1ccc2cc(-c3nc(-c4ccc([S+](C)[O-])cc4)[nH]c3-c3ccncc3)ccc2c1 (centres unmarked) [Tie2 Kinase Inhibitor] | < 5.00 | < 5.00 | 1.0 |  |  |  |  | 
4 | CC(C)(C)c1cc(NC(=O)Nc2ccc(-c3cn4c(n3)sc3cc(OCCN5CCOCC5)ccc34)cc2)no1 [Quizartinib] |  |  | 0.4 | 6.28 | 6.64 |  |  | 
5 | COc1cc2ncnc(Nc3ccc(F)c(Cl)c3)c2cc1OCCCN1CCOCC1 [Gefitinib] |  |  | 0.9 |  |  |  |  | 
6 | O=C(NOCC1CC1)c1ccc(F)c(F)c1Nc1ccc(I)cc1Cl [CI1040 PD.184352.] |  |  | 0.9 | 5.56 | 5.61 |  |  | 
7 | COc1ccc(Cl)c(Nc2nc3ccccc3nc2NS(=O)(=O)c2cccc(NC(=O)C(C)(C)N)c2)c1 [SAR245408 XL147] |  |  |  | < 5.00 | < 5.00 |  |  | 
8 | CC[C@H](Nc1ncnc2[nH]cnc12)c1nc2cccc(F)c2c(=O)n1-c1ccccc1 [GS1101 idelalisib CAL101, idelalisib] |  |  | 1.3 | 5.25 | 5.13 |  |  | 
9 | CNC(=O)c1cccc(-c2ccc3c(N4CCOC[C@@H]4C)nc(N4CCOC[C@@H]4C)nc3n2)c1 [AZD2014, 3-(2,4-bis((S)-3-methylmorpholino)pyrido[2,3-d]pyrimidin-7-yl)-N-methylbenzamide] |  |  | 3.6 | 6.66 | 6.11 |  |  | 
10 | CNc1cc2c(Nc3cccc(Br)c3)ncnc2cn1 [PD158780] | 5.11 | 5.13 | 1.0 |  |  |  |  | 
11 | Cc1[nH]c(/C=C2\C(=O)Nc3cc(-c4ccccc4)ccc32)c(C)c1CCC(=O)O [PDGFR Tyrosine Kinase Inhibitor VII] | 5.55 | 5.22 | 2.1 |  |  |  |  | 
12 | Cc1nc(NC(=O)N2CCC[C@H]2C(N)=O)sc1-c1ccnc(C(C)(C)C(F)(F)F)c1 [BYL719] |  |  | 1.6 | 5.32 | 5.12 |  |  | 
13 | CCCS(=O)(=O)Nc1ccc(F)c(C(=O)c2c[nH]c3ncc(-c4ccc(Cl)cc4)cc23)c1F [Vemurafenib] |  |  | 1.2 | 5.07 | 5.01 |  |  | 
14 | CN(C)CCOc1ccc(-c2nc(-c3ccncc3)c(-c3ccc4c(c3)CC/C4=N\O)[nH]2)cc1 [SB590885] |  |  | 1.5 | 5.41 | 5.23 |  |  | 
15 | Cc1cn(-c2cc(NC(=O)c3ccc(C)c(Nc4nccc(-c5cccnc5)n4)c3)cc(C(F)(F)F)c2)cn1 [Nilotinib] |  |  | 1.0 | 5.42 | 5.41 |  |  | 
16 | CNC(=O)c1cc(Oc2ccc(NC(=O)Nc3ccc(Cl)c(C(F)(F)F)c3)cc2)ccn1 [Sorafenib Tosylate] |  |  |  | 6.03 | 5.96 | 1.2 |  | 
17 | Cc1ccc(NC(=O)c2ccc(CN3CCN(C)CC3)cc2)cc1Nc1nc(-c2cccnc2)cs1 [Masitinib] |  |  | 1.5 | 5.34 | 5.15 |  |  | 
18 | CS(=O)(=O)N1CCN(Cc2cc3nc(-c4cccc5[nH]ncc45)nc(N4CCOCC4)c3s2)CC1 [GDC0941] |  |  | 1.8 | 6.22 | 5.96 |  |  | 

Row | SMILES | pEC50 [1, 3] | pEC50 [2, 4] | FOLD CHANGE High/Med-low [2, 5] | pEC50 [1, 6] | pEC50 [2, 7] | FOLD CHANGE High/Med-low [2] | pEC50 ([1]; Homo sapiens, 144 h) | pEC50 ([2]; Homo sapiens, 144 h)
19 | CN1CCC(c2[nH]nc(-c3ccc(Cl)cc3)c2-c2ccncn2)CC1 [p38 MAP Kinase Inhibitor V] | 5.06 | 5.14 | 0.8 |  |  |  |  | 
20 | C[C@]1(O)C[C@@H](c2nc(-c3ccc4ccc(-c5ccccc5)nc4c3)c3c(N)nccn32)C1 [OS1906 Linsitinib., Linsitinib] |  |  | 1.1 | 5.41 | 5.37 |  |  | 
21 | Cn1cc(C2=C(c3cn(C4CCN(Cc5ccccn5)CC4)c4ccccc34)C(=O)NC2=O)c2ccccc21 [Enzastaurin] |  |  | 1.0 | < 5.00 | 5.01 |  |  | 
22 | NC(=O)c1ccc(N(C(N)=O)c2c(F)cccc2F)nc1-c1ccc(F)cc1F [VX702] |  |  | 1.0 | < 5.00 | 5.02 |  |  | 
23 | C=CCNC1=C2C[C@@H](C)C[C@H](OC)[C@H](O)[C@@H](C)/C=C(\C)[C@H](OC(N)=O)[C@@H](OC)/C=C\C=C(/C)C(=O)NC(=CC1=O)C2=O [Tanespimycin 17AAG, Tanespimycin] |  |  | 1.3 | 6.60 | 6.50 |  |  | 
24 | C#Cc1cccc(Nc2ncnc3cc(OCCOC)c(OCCOC)cc23)c1 [Erlotinib] |  |  | 0.9 | 5.04 | 5.06 |  |  | 
25 | N#Cc1ccc(C(=O)Nc2cc(N3CCCCC3)ccc2N2CCCCC2)o1 [cFMS Receptor Inhibitor IV] | 5.02 | < 5.00 | 1.0 |  |  |  |  | 
26 | NC(=O)N1CCC(CC(=O)N2CCC([C@H]3c4ncc(Br)cc4CCc4cc(Cl)cc(Br)c43)CC2)CC1 [Lonafarnib] |  |  | 0.7 | 5.44 | 5.60 |  |  | 
27 | CC(=O)Nc1cccc(-n2c(=O)n(C3CC3)c(=O)c3c(Nc4ccc(I)cc4F)n(C)c(=O)c(C)c32)c1 [Trametinib GSK1120212, Trametinib] |  |  | 1.4 | 7.74 | 7.60 |  |  | 
28 | COc1cc2nccc(Oc3ccc(NC(=O)Nc4ccc(F)cc4F)c(F)c3)c2cc1OC [Ki8751] | 6.11 | 6.07 | 1.1 |  |  |  |  | 
29 | Nc1cccc2c1CN(C1CCC(=O)NC1=O)C2=O (centres unmarked) [Lenalidomide] |  |  | 0.7 | 5.00 | 5.14 |  |  | 
30 | CCN(CC)CCCCNc1ncc2cc(-c3cc(OC)cc(OC)c3)c(NC(=O)NC(C)(C)C)nc2n1 [PD173074] | 5.28 | 5.31 | 1.0 |  |  |  |  | 
31 | CC(C)c1cc(/C=C(\C#N)C(=O)NCCCc2ccccc2)cc(C(C)C)c1O [SU1498] | 5.01 | 5.01 | 1.0 |  |  |  |  | 
32 | Cc1ccc(Nc2c(C(N)=O)cnc3cc(-c4ccc(S(C)(=O)=O)cc4)ccc23)cc1C [cFMS Receptor Inhibitor III] | 5.10 | 5.05 | 1.1 |  |  |  |  | 
33 | N#CC(=C(/N)Sc1ccccc1N)/C(C#N)=C(\N)Sc1ccccc1N [U0126] |  |  |  |  |  | 1.1 | 5.39 | 5.35
34 | NC1(c2ccc(-c3nc4ccn5c(=O)[nH]nc5c4cc3-c3ccccc3)cc2)CCC1 [MK2206] |  |  | 2.2 | 5.99 | 5.64 |  |  | 
35 | COc1cccc2cc(-c3nc([C@H]4CC[C@H](C(=O)O)CC4)n4ncnc(N)c34)[nH]c12 [OSI027, (1r,4r)-4-(4-amino-5-(7-methoxy-1H-indol-2-yl)imidazo[1,5-f][1,2,4]triazin-7-yl)cyclohexanecarboxylic acid] |  |  | 3.1 | 6.18 | 5.69 |  |  | 
36 | COc1cc2nccc(Oc3ccc(NC(=O)NC4CC4)c(Cl)c3)c2cc1C(N)=O [E7080 Lenvatinib., Lenvatinib] |  |  | 2.2 | 5.48 | 5.14 |  |  | 
